Test results as given in US10336762B2 (priority 2017, dated 2019).

What was measured:
TNFα = experiment: cells; type: cell-based, human; conditions: Homo sapiens, Monocyte, LPS-stimulated human monocytes, TNFα content; read-out: EC50 TNF
IRAK4 enzyme = IRAK4 enzyme (Homo sapiens (Human), UniProt Q9NWZ3); experiment: biochemical; type: biochemical; conditions: IRAK4 enzyme, TR-FRET (HTRF), 500 μM ATP
IRAK4 enzyme, sequence (Q9NWZ3 whole entry): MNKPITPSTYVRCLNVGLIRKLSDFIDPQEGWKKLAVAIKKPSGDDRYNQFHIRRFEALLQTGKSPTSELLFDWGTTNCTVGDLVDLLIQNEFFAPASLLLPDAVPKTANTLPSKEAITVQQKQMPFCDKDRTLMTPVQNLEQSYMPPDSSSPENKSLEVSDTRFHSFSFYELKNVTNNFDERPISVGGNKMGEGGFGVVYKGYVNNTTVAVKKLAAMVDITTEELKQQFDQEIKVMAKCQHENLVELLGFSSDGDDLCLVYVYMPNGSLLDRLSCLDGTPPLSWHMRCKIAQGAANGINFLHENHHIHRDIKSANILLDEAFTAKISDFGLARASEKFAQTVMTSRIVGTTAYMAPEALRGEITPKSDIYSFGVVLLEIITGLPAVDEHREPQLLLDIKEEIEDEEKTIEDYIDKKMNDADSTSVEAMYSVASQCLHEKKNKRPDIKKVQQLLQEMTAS

| SMILES | EC50 (TNFα) [nM] | IC50 (IRAK4 enzyme) [nM] |
| --- | --- | --- |
| CC(C)(O)[C@H](F)CNC(=O)c1cnc(-c2ccc3cc(C#N)cnn23)cc1N[C@H]1CC[C@H](O)C1 [Example 522, 6-(3-cyanopyrrolo[1,2-b]pyridazin-7-yl)-N-((R)-2-fluoro-3-hydroxy-3-methylbutyl)-4-(((1S,3S)-3-hydroxycyclopentyl)amino) nicotinamide] | 23 | < 1 |
| CC(C)(O)[C@H](F)CNC(=O)c1cnc(-c2ccc3cc(C#N)cnn23)cc1NC1CCC(S(C)(=O)=O)CC1 (stereo partly drawn) [Example 523, (R)-6-(3-cyanopyrrolo[1,2-b]pyridazin-7-yl)-N-(2-fluoro-3-hydroxy-3-methylbutyl)-4-((4-(methylsulfonyl)cyclohexyl)amino)nicotinamide] | 412 | 14 |
| CC(C)(O)[C@H](F)CNC(=O)c1cnc(-c2ccc3cc(C#N)cnn23)cc1N[C@H]1CCC[C@@H](N2CCOCC2)C1 [Example 524, 6-(3-cyanopyrrolo[1,2-b]pyridazin-7-yl)-N-((R)-2-fluoro-3-hydroxy-3-methylbutyl)-4-(((1S,3R)-3-morpholinocyclohexyl)amino)nicotinamide] | 97 | 1 |
| N#Cc1cnn2c(-c3cc(NC4COC4)c(C(=O)N[C@H]4CC[C@H](NC(=O)C5CC5)CC4)cn3)ccc2c1 [Example 526, 6-(3-cyanopyrrolo[1,2-b]pyridazin-7-yl)-N-((1r,4r)-4-(cyclopropane-carboxamido)cyclohexyl)-4-(oxetan-3-ylamino) nicotinamide] | 99 | 1 |
| N#Cc1cnn2c(-c3cc(N[C@H]4CCC[C@@H](O)C4)c(C(=O)N[C@H]4CC[C@H](NC(=O)C5CC5)CC4)cn3)ccc2c1 [Example 527, 6-(3-cyanopyrrolo[1,2-b]pyridazin-7-yl)-N-((1r,4S)-4-(cyclopropane-carboxamido)cyclohexyl)-4-(((1S,3R)-3-hydroxycyclo-hexyl)amino)nicotinamide] | 16 | < 1 |
| CC(C)(F)[C@H](F)CNC(=O)c1cnc(-c2ccc3cc(C#N)cnn23)cc1N[C@H]1CCC[C@@H](O)C1 [Example 530, 6-(3-cyanopyrrolo[1,2-b]pyridazin-7-yl)-N-((R)-2,3-difluoro-3-methylbutyl)-4-(((1S,3R)-3-hydroxy-cyclohexyl)amino)nicotinamide] | 10 | < 1 |
| CC(C)Nc1cc(-c2ccc3cc(C#N)cnn23)ncc1C(=O)NC[C@@H](F)C(C)(C)F [Example 531, (R)-6-(3-cyanopyrrolo[1,2-b]pyridazin-7-yl)-N-(2,3-difluoro-3-methylbutyl)-4-(isopropylamino)nicotinamide] | 34 | < 1 |
| CC(=O)N[C@@H]1CCC[C@H](Nc2cc(-c3ccc4cc(C#N)cnn34)ncc2C(=O)NC[C@@H](F)C(C)(C)O)C1 [Example 532, 4-(((1S,3R)-3-acetamidocyclohexyl)amino)-6-(3-cyano-pyrrolo[1,2-b]pyridazin-7-yl)-N-((R)-2-fluoro-3-hydroxy-3-methylbutyl) nicotinamide] | 122 | 1 |
| CC(C)(O)[C@H](F)CNC(=O)c1cnc(-c2ccc3cc(C#N)cnn23)cc1N[C@H]1CCC[C@@H](N)C1 [Example 533, 4-(((1S,3R)-3-aminocyclohexyl)amino)-6-(3-cyanopyrrolo[1,2-b]pyridazin-7-yl)-N-((R)-2-fluoro-3-hydroxy-3-methylbutyl)nicotinamide] | 70 | < 1 |
| CC(C)(O)[C@H](F)CNC(=O)c1cnc(-c2ccc3cc(C#N)cnn23)cc1N[C@H]1C[C@H](CNC(=O)C2CC2)C1 [Example 534, 6-(3-cyanopyrrolo[1,2-b]pyridazin-7-yl)-4-(((1r,3R)-3-(cyclopropane-carboxamidomethyl)cyclo-butyl)amino)-N-((R)-2-fluoro-3-hydroxy-3-methyl-butyl)nicotinamide] | 26 | < 1 |
| CC(C)(O)[C@H](F)CNC(=O)c1cnc(-c2ccc3cc(C#N)cnn23)cc1N[C@H]1CC[C@](C)(N)CC1 [Example 535, (R)-4-((4-amino-4-methylcyclohexyl)amino)-6-(3-cyanopyrrolo[1,2-b]pyridazin-7-yl)-N-(2-fluoro-3-hydroxy-3-methylbutyl)nicotinamide] | 999 | 2 |
| CC(C)(O)[C@H](F)CNC(=O)c1cnc(-c2ccc3cc(C#N)cnn23)cc1N[C@H]1C[C@H](CO)C1 [Example 536, 6-(3-cyanopyrrolo[1,2-b]pyridazin-7-yl)-N-((R)-2-fluoro-3-hydroxy-3-methylbutyl)-4-(((1r,3R)-3-(hydroxymethyl)cyclo-butyl)amino)nicotinamide] | 16 | < 1 |
| CC(C)(O)[C@H](F)CNC(=O)c1cnc(-c2ccc3cc(C#N)cnn23)cc1NC12CCC(C(F)F)(CC1)CC2 [Example 537, (R)-6-(3-cyanopyrrolo[1,2-b]pyridazin-7-yl)-4-((4-(difluoromethyl)bicyclo[2.2.2]octan-1-yl)amino)-N-(2-fluoro-3-hydroxy-3-methylbutyl)nicotinamide] | 18 | 1 |
| CCC(=O)NC[C@H]1C[C@H](Nc2cc(-c3ccc4cc(C#N)cnn34)ncc2C(=O)NC[C@@H](F)C(C)(C)O)C1 [Example 538, 6-(3-cyanopyrrolo[1,2-b]pyridazin-7-yl)-N-((R)-2-fluoro-3-hydroxy-3-methylbutyl)-4-(((1r,3R)-3-(propionamidomethyl)cyclobutyl)amino)nicotin-amide] | 50 | < 1 |
| CC(C)OC(=O)NC[C@H]1C[C@H](Nc2cc(-c3ccc4cc(C#N)cnn34)ncc2C(=O)NC[C@@H](F)C(C)(C)O)C1 [Example 539, isopropyl (((1R,3r)-3-((2-(3-cyanopyrrolo[1,2-b]pyridazin-7-yl)-5-(((R)-2-fluoro-3-hydroxy-3-methylbutyl)carbamoyl)pyridin-4-yl)amino)cyclo-butyl)methyl)carbamate] | 12 | < 1 |
| CCOC(=O)NC[C@H]1C[C@H](Nc2cc(-c3ccc4cc(C#N)cnn34)ncc2C(=O)NC[C@@H](F)C(C)(C)O)C1 [Example 540, ethyl (((1R,3r)-3-((2-(3-cyanopyrrolo[1,2-b]pyridazin-7-yl)-5-(((R)-2-fluoro-3-hydroxy-3-methylbutyl)carbamoyl)pyridin-4-yl)amino)cyclo-butyl)methyl)carbamate] | 12 | < 1 |
| CN(C)C(=O)NC[C@H]1C[C@H](Nc2cc(-c3ccc4cc(C#N)cnn34)ncc2C(=O)NC[C@@H](F)C(C)(C)O)C1 [Example 541, 6-(3-cyanopyrrolo[1,2-b]pyridazin-7-yl)-4-(((1r,3R)-3-((3,3-dimethyl-ureido)methyl)cyclobutyl)amino)-N-((R)-2-fluoro-3-hydroxy-3-methylbutyl) nicotinamide] | 65 | < 1 |
| CC(C)(O)[C@H](F)CNC(=O)c1cnc(-c2ccc3cc(C#N)cnn23)cc1N[C@H]1C[C@H](CNC(=O)C(F)(F)F)C1 [Example 542, 6-(3-cyanopyrrolo[1,2-b]pyridazin-7-yl)-N—((R)-2-fluoro-3-hydroxy-3-methylbutyl)-4-(((1r,3R)-3-((2,2,2-trifluoroacetamido)methyl)cyclobutyl)amino)nicotinamide] | 27 | < 1 |
